# Test results: patent US20160177395A1, “BIOMARKERS FOR THE PREDICTION OF RENAL INJURY” (priority 2007, published 2016)
# Test system: kidney tissues
# Assay: Random-Forest classifier for renal toxicity, discovery stage (Day-5 and Day-1 signatures)
# Design: species or system rat
# Conditions: Day-5 animals, qRT-PCR data, signature of Table 13
# Source text: Finding signatures using machine learning algorithms requires two steps—selecting a limited set of features to be used for the signature, and building a classifier using these features. The feature selection stage is especially significant here for several reasons. Large number of features means a low signal to noise ratio, tampering the classifier performance, large number of features, compared to the relatively small number of samples, means that spurious features might exists. These are features that give good classification on the experiment data by chance, causing the classifier to be over-fitted to the learning set and have low prediction ability, and finally—a small number of features is important for practical application of the signature.
# The initial features selection process is done by performing Mann-Whitney (Wilcoxon) rank-sum test on the data, considering only probesets whose overall normalized expression mean is over 25, to avoid working at noise-level. […]
# The qRT-PCR data was used to construct the optimal Random-Forest classifier for Day-5 (Table 13) and Day-1 (Table 16). The optimal performance of the Day-5 signatures, as measured by cross validation is—Accuracy of 94% and LOR of 5.6. […]
structure (smiles),measurement,value
[Cl][Cd][Cl] [Cadmium chloride],Samples classified correctly as toxic by the optimal Day-5 classifier,5 out of 6
